In patent US5741671A, “Isolation cloning and expression of transmembrane water channel aquaporin 1(AQP1)” (The Johns Hopkins University, priority 1995, dated 1998):

Target: T1, AQP1 (Homo sapiens, UniProt P29972)
T1 sequence (P29972 1-269): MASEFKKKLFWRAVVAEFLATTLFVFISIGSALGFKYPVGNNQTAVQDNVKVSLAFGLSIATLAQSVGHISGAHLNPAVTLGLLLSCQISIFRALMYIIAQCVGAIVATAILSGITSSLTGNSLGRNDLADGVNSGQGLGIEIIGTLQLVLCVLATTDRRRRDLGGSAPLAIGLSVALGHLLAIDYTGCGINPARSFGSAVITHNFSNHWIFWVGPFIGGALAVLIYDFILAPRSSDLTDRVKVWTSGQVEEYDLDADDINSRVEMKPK
Experiment: Xenopus oocyte osmotic swelling assay, AQP1 RNA-injected oocytes (Example 4)
Format: cell-based
Parameters: expressed in transfected cells; host or cells: Xenopus laevis oocytes injected with in vitro transcribed AQP1 RNA
Settings: for Pf (osmotic water permeability): AQP1 RNA-injected (10 ng) oocytes, 22° C.
Experimental: Expression of AQP1 in Xenopus oocytes. Oocytes were removed from female Xenopus laevis frogs and prepared as described by Dascal (CRC Crit. Rev. Biochem., 1987, 22:317-373). Oocytes were injected with 0.05 microliters of water (control) or the same volume of water containing 1-10 nanograms of AQP1 RNA. The oocytes were incubated for up to 96 hours at 18° C. in modified Barth's buffer (88 mM NaCl, 1 mM KCl, 0.8 mM MgSO4, 0.3 mM Ca(NO3)2, 0.4 mM CaCl2, 2.4 mm NaHCO3, 10 mM HEPES, pH=7.4, total osmolality=200 mOsm/kg) also containing antibiotics. The whole oocytes were then removed and total cellular protein was dissolved in 40 microliters of buffer containing 1% (w/v) SDS and analyzed by immunoblot (Towbin et al., 1979, Proc. Natl. Acad. Sci. USA 76:4350-4354).
A swelling assay was adapted from that of published work (Fischbarg et al., 1990, Proc. Natl. Acad. Sci. USA 87:3244-3247; Zhang et al., 1990, J. Biol. Chem. 265: 15375-15378). Control-injected oocytes and AQP1 RNA-injected oocytes were incubated at 22° C. in modified Barth's solution diluted with distilled H2 O to 30% of the original tonicity. The oocytes were then observed by videomicroscopy. Swelling was monitored with a Nikon phase-contrast microscope equipped for videorecording. The longest (D1) and shortest (D2) diameters of the oocytes were measured at 15- to 30-second intervals. Oocyte volumes (V) at each time point were calculated relative to volume at the initial observation (Vo):
The change in relative volume with time, d(V/Vo)/dt, up to 8 minutes (or time of oocyte rupture) was fitted by computer to a quadratic polynomial, and initial rates of swelling were calculated. Osmotic water permeability (Pf, in cm/s) was calculated from osmotic swelling data, initial oocyte surface area (S=0.045 cm^2), and the molar volume of water (Vw =18 cm^3 /mol) (Zhang et al., 1990, J. Biol. Chem. 15375):
Pf =Vo ×d(V/Vo)dt]/[S×Vw x(osmm
After 72 hours, control- or AQP1 RNA-injected (10 ng) oocytes were treated as indicated. Some oocytes were left in standard Barth's buffer prior to measurement of osmotic swelling at 22° C. Other oocytes were incubated 5 minutes in Barth's buffer containing 0.3 mM or 3 mM HgCl2 as described, then removed and incubated for 15 min in 5 mM β-mercaptoethanol prior to osmotic swelling in the presence of β-mercaptoethanol.
After 72 hours, control-injected oocytes and oocytes injected with 0.1 to 10 ng of AQP1 RNA were studied for osmotic swelling at 22° C. The amount of AQP1 protein was estimated by dilutional immunoblotting (Denker et al., 1988, J. Biol. Chem. 263:15634; Laemmli, 1970, Nature 227:680; Towbin et al., 1979, Proc. Natl. Acad. Sci., 76:4350; Davis and Bennett, 1982, 257:5816).

| restoration of swelling after HgCl2 inhibition (5 mM β-mercaptoethanol after 0.3 mM HgCl2) | SMILES | inhibition of swelling of AQP1 RNA-injected oocytes (0.3 mM HgCl2) | Pf (osmotic water permeability) (0.3 mM HgCl2 5 minutes) | Pf (osmotic water permeability) (3.0 mM HgCl2 5 minutes) |
| --- | --- | --- | --- | --- |
| restored | OCCS [β-mercaptoethanol] | – | – | – |
| – | [Cl][Hg][Cl] [HgCl2] | inhibited | 80.7 cm/s x 10^-4 | 34.5 cm/s x 10^-4 |
